# Assay results taken from patent US20240270741A1 (Cogent Biosciences, Inc., priority 2023, published 2024).
# Target: FGFR2 (Homo sapiens, UniProt P21802)
# Assay: FGFR wild type enzyme assay (HTRF KinEASE-TK), FGFR2
# Settings: Enz FGFR2 (nM)
# Sequence of FGFR2 (P21802 399-821 limits assumed): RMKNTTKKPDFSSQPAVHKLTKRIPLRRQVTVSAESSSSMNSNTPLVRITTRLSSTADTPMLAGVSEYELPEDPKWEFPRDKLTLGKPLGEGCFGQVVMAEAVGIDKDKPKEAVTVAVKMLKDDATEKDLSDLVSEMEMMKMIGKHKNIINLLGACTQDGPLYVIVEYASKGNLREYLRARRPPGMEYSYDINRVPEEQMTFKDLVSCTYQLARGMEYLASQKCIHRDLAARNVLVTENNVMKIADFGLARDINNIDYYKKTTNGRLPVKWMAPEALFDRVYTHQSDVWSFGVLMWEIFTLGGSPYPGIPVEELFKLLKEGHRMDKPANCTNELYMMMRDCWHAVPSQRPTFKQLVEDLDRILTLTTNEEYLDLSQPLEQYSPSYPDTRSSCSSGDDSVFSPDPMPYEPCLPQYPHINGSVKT
row,IC50,Compound
1,1 nM,"Cc1c(-c2cc(Sc3ccccc3C#N)c3c(C#N)cnn3c2)cnn1[C@H]1CCNC1 [Example 122, 4-(2-cyanophenyl)sulfanyl-6-[5-methyl-1-[(3S)-pyrrolidin-3-yl]pyrazol-4-yl]pyrazolo[1,5-a]pyridine-3-carbonitrile]"
2,9 nM,"Cc1c(-c2cc(Sc3ccc(Cl)cc3C#N)c3c(C#N)cnn3c2)cnn1C1CCNCC1 [Example 123, 4-(4-chloro-2-cyano-phenyl)sulfanyl-6-[5-methyl-1-(4-piperidyl)pyrazol-4-yl]pyrazolo[1,5-a]pyridine-3-carbonitrile]"
3,1 nM,Cc1c(-c2cc(Sc3ccccc3C#N)c3c(C#N)cnn3c2)cnn1[C@H]1CC[C@@H](N(C)C)CC1 [Example 124]
4,1 nM,Cc1c(-c2cc(Sc3ccccc3F)c3c(C#N)cnn3c2)cnn1C1CCN(C)CC1 [Example 125]
5,1 nM,"CN1CCC[C@H]1C(=O)N1CCC(n2cc(-c3cc(Sc4ncccc4F)c4c(C#N)cnn4c3)cn2)CC1 [Example 126, 4-[(3-fluoro-2-pyridyl)sulfanyl]-6-[1-[1-[(2S)-1-methylpyrrolidine-2-carbonyl]-4-piperidyl]pyrazol-4-yl]pyrazolo[1,5-a]pyridine-3-carbonitrile]"
6,1 nM,"CN1CCC[C@@H]1C(=O)N1CCC(n2cc(-c3cc(Sc4ncccc4F)c4c(C#N)cnn4c3)cn2)CC1 [Example 127, 4-[(3-fluoro-2-pyridyl)sulfanyl]-6-[1-[1-[(2R)-1-methylpyrrolidine-2-carbonyl]-4-piperidyl]pyrazol-4-yl]pyrazolo[1,5-a]pyridine-3-carbonitrile]"
7,2 nM,Cc1ccc(Sc2cc(-c3cnn(C4CCNCC4)c3C)cn3ncc(C#N)c23)nc1C [Example 129]
8,40 nM,"Cc1c(-c2cc(Sc3cccc4c3ncn4C)c3c(C#N)cnn3c2)cnn1C1CCN(C)CC1 [Example 131, 4-(1-methylbenzimidazol-4-yl)sulfanyl-6-[5-methyl-1-(1-methyl-4-piperidyl)pyrazol-4-yl]pyrazolo[1,5-a]pyridine-3-carbonitrile]"
9,10 nM,"Cc1c(-c2cc(Sc3cccc4ncn(C)c34)c3c(C#N)cnn3c2)cnn1C1CCN(C)CC1 [Example 132, 4-(3-methylbenzimidazol-4-yl)sulfanyl-6-[5-methyl-1-(1-methyl-4-piperidyl)pyrazol-4-yl]pyrazolo[1,5-a]pyridine-3-carbonitrile]"
10,6 nM,"Cc1c(-c2cc(Sc3cccc4c3cnn4C)c3c(C#N)cnn3c2)cnn1C1CCN(C)CC1 [Example 133, 4-(1-methylindazol-4-yl)sulfanyl-6-[5-methyl-1-(1-methyl-4-piperidyl)pyrazol-4-yl]pyrazolo[1,5-a]pyridine-3-carbonitrile]"
11,1 nM,"Cc1c(-c2cc(Sc3ccccc3F)c3c(C#N)cnn3c2)cnn1[C@H]1CCCNC1 [Example 134, 4-(2-fluorophenyl)sulfanyl-6-[5-methyl-1-[(3S)-3-piperidyl]pyrazol-4-yl]pyrazolo[1,5-a]pyridine-3-carbonitrile]"

# Same assay, conditions: Enz FGFR2 (nM), FGFR2 wild type enzyme
row,IC50,Compound
1,1 nM,"COCCN1CCC(n2ncc(-c3cc(Sc4ccccc4C#N)c4c(C#N)cnn4c3)c2C)CC1 [Example 139, 4-((2-cyanophenyl)thio)-6-(1-(1-(2-methoxyethyl)piperidin-4-yl)-5-methyl-1H-pyrazol-4-yl)pyrazolo[1,5-a]pyridine-3-carbonitrile]"
2,1 nM,"CO[C@H](C)CN1CCC(n2ncc(-c3cc(Sc4ccccc4C#N)c4c(C#N)cnn4c3)c2C)CC1 [Example 140, (R)-4-((2-cyanophenyl)thio)-6-(1-(1-(2-methoxypropyl)piperidin-4-yl)-5-methyl-1H-pyrazol-4-yl)pyrazolo[1,5-a]pyridine-3-carbonitrile]"
3,1 nM,"Cc1c(-c2cc(Sc3ccccc3C#N)c3c(C#N)cnn3c2)cnn1C1CCN(C[C@@H](C)O)CC1 [Example 141, (R)-4-((2-cyanophenyl)thio)-6-(1-(1-(2-hydroxypropyl)piperidin-4-yl)-5-methyl-1H-pyrazol-4-yl)pyrazolo[1,5-a]pyridine-3-carbonitrile]"
4,13 nM,"Cc1c(-c2cc(Sc3ccccc3C#N)c3c(C#N)cnn3c2)cnn1C1CCN(C[C@H](C)O)CC1 [Example 142, (S)-4-((2-cyanophenyl)thio)-6-(1-(1-(2-hydroxypropyl)piperidin-4-yl)-5-methyl-1H-pyrazol-4-yl)pyrazolo[1,5-a]pyridine-3-carbonitrile]"
5,2 nM,"Cc1c(-c2cc(Sc3ncccc3F)c3c(C#N)cnn3c2)cnn1C1CCN(C[C@@H](C)O)CC1 [Example 143, (R)-4-((3-fluoropyridin-2-yl)thio)-6-(1-(1-(2-hydroxypropyl)piperidin-4-yl)-5-methyl-1H-pyrazol-4-yl)pyrazolo[1,5-a]pyridine-3-carbonitrile]"
6,1.5 nM,"Cc1c(-c2cc(Sc3ncccc3F)c3c(C#N)cnn3c2)cnn1C1CCN(C[C@H](C)O)CC1 [Example 144, (S)-4-((3-fluoropyridin-2-yl)thio)-6-(1-(1-(2-hydroxypropyl)piperidin-4-yl)-5-methyl-1H-pyrazol-4-yl)pyrazolo[1,5-a]pyridine-3-carbonitrile]"
7,7 nM,"Cc1c(-c2cc(Sc3c(F)cc(F)cc3C#N)c3c(C#N)cnn3c2)cnn1C1CCNCC1 [Example 145, 4-((2-cyano-4,6-difluorophenyl)thio)-6-(5-methyl-1-(piperidin-4-yl)-1H-pyrazol-4-yl)pyrazolo[1,5-a]pyridine-3-carbonitrile]"
8,2 nM,"Cc1c(-c2cc(Sc3ncccc3F)c3c(C#N)cnn3c2)cnn1C1CCN([C@@H](C)CO)CC1 [Example 146, (S)-4-((3-fluoropyridin-2-yl)thio)-6-(1-(1-(1-hydroxypropan-2-yl)piperidin-4-yl)-5-methyl-1H-pyrazol-4-yl)pyrazolo[1,5-a]pyridine-3-carbonitrile]"
9,2 nM,"Cc1c(-c2cc(Sc3ncccc3F)c3c(C#N)cnn3c2)cnn1C1CCN([C@H](C)CO)CC1 [Example 147, (R)-4-((3-fluoropyridin-2-yl)thio)-6-(1-(1-(1-hydroxypropan-2-yl)piperidin-4-yl)-5-methyl-1H-pyrazol-4-yl)pyrazolo[1,5-a]pyridine-3-carbonitrile]"

# Continued, compound first:
row,Compound,IC50
1,"Cc1c(-c2cc(Sc3ccc(F)cc3C#N)c3c(C#N)cnn3c2)cnn1C1CCNCC1 [Example 135, 4-4-((2-cyano-4-fluorophenyl)thio)-6-(5-methyl-1-(piperidin-4-yl)-1H-pyrazol-4-yl)pyrazolo[1,5-a]pyridine-3-carbonitrile]",1 nM
2,"Cc1c(-c2cc(Sc3ccccc3F)c3c(C#N)cnn3c2)cnn1[C@@H]1CCCNC1 [Example 136, (R)-4-((2-fluorophenyl)thio)-6-(5-methyl-1-(piperidin-3-yl)-1H-pyrazol-4-yl)pyrazolo[1,5-a]pyridine-3-carbonitrile]",4 nM
3,"Cc1c(-c2cc(Sc3c(F)cccc3C#N)c3c(C#N)cnn3c2)cnn1C1CCNCC1 [Example 137, 4-((2-cyano-6-fluorophenyl)thio)-6-(5-methyl-1-(piperidin-4-yl)-1H-pyrazol-4-yl)pyrazolo[1,5-a]pyridine-3-carbonitrile]",1 nM
4,"Cc1c(-c2cc(Sc3ccccc3C#N)c3c(C#N)cnn3c2)cnn1C1CCN(CCO)CC1 [Example 138, 4-((2-cyanophenyl)thio)-6-(1-(1-(2-hydroxyethyl)piperidin-4-yl)-5-methyl-1H-pyrazol-4-yl)pyrazolo[1,5-a]pyridine-3-carbonitrile]",1 nM
